Experimental data from PubChem BioAssay (NCI).
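How tested: cells in 96-well plates exposed to compound for 48 hours at five concentrations. Here, GI50 denotes the concentration required for 50% inhibition of growth. TGI: concentration producing complete growth inhibition.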

What was measured:
Experiment in all cases: DTP human tumour cell line panel, 48 h
[1] = test system: 786-0 renal
[2] = test system: A498 renal
[3] = test system: A549 NSCLC
[4] = test system: ACHN renal
[5] = test system: BT-549 breast
[6] = test system: CAKI-1 renal
[7] = test system: CCRF-CEM leukemia
[8] = test system: COLO 205 colon
[9] = test system: DU-145 prostate
[10] = test system: EKVX NSCLC
[11] = test system: HCC-2998 colon
[12] = test system: HCT-116 colon
[13] = test system: HCT-15 colon
[14] = test system: HL-60(TB) leukemia
[15] = test system: HOP-62 NSCLC
[16] = test system: HS 578T breast
[17] = test system: HT29 colon
[18] = test system: IGROV1 ovarian
[19] = test system: K-562 leukemia
[20] = test system: KM12 colon
[21] = test system: LOX IMVI melanoma
[22] = test system: M14 melanoma
[23] = test system: MALME-3M melanoma
[24] = test system: MCF7 breast
[25] = test system: MDA-MB-231 breast
[26] = test system: MDA-MB-435
[27] = test system: MOLT-4 leukemia
[28] = test system: NCI-H226 lung
[29] = test system: NCI-H23 lung
[30] = test system: NCI-H460 lung
[31] = test system: NCI-H522 lung
[32] = test system: NCI/ADR-RES ovarian
[33] = test system: OVCAR-3 ovarian
[34] = test system: OVCAR-4 ovarian
[35] = test system: OVCAR-5 ovarian
[36] = test system: OVCAR-8 ovarian
[37] = test system: PC-3 prostate
[38] = test system: RPMI-8226 leukemia
[39] = test system: RXF 393 renal
[40] = test system: SF-268 CNS
[41] = test system: SF-295 CNS
[42] = test system: SF-539 CNS
[43] = test system: SK-MEL-2 melanoma
[44] = test system: SK-MEL-28 melanoma
[45] = test system: SK-MEL-5 melanoma
[46] = test system: SK-OV-3 ovarian
[47] = test system: SN12C renal
[48] = test system: SNB-19 CNS
[49] = test system: SNB-75 CNS
[50] = test system: SR leukemia
[51] = test system: SW-620 colon
[52] = test system: TK-10 renal
[53] = test system: U251 CNS
[54] = test system: UACC-257 melanoma
[55] = test system: UACC-62 melanoma
[56] = test system: UO-31 renal
[57] = test system: HOP-92 NSCLC

CCOC(=O)c1nc2cc(C(F)(F)F)ccc2[n+]([O-])c1C
GI50 [1]: > 100000 nM | TGI [1]: > 100 µM | GI50 [2]: > 100 µM | TGI [2]: > 100 µM | GI50 [3]: > 100 µM | TGI [3]: > 100 µM | GI50 [4]: > 100 µM | TGI [4]: > 100 µM | GI50 [5]: > 100 µM | TGI [5]: > 100 µM | GI50 [6]: > 100 µM | TGI [6]: > 100 µM | GI50 [7]: 159 nM | TGI [7]: 533 nM | GI50 [8]: > 100000 nM | TGI [8]: > 100 µM | GI50 [9]: > 100000 nM | TGI [9]: > 100 µM | GI50 [10]: > 100 µM | TGI [10]: > 100 µM | GI50 [11]: > 100000 nM | TGI [11]: > 100 µM | GI50 [12]: > 100 µM | TGI [12]: > 100 µM | GI50 [13]: > 100 µM | TGI [13]: > 100 µM | GI50 [14]: > 100 µM | TGI [14]: > 100 µM | GI50 [15]: > 100 µM | TGI [15]: > 100 µM | GI50 [16]: > 100000 nM | TGI [16]: > 100 µM | GI50 [17]: > 100000 nM | TGI [17]: > 100 µM | GI50 [18]: > 100 µM | TGI [18]: > 100 µM | GI50 [19]: > 100000 nM | TGI [19]: > 100 µM | GI50 [20]: > 100 µM | TGI [20]: > 100 µM | GI50 [21]: > 100000 nM | TGI [21]: > 100000 nM | GI50 [22]: > 100 µM | TGI [22]: > 100 µM | GI50 [23]: > 100 µM | TGI [23]: > 100 µM | GI50 [24]: > 100 µM | TGI [24]: > 100 µM | GI50 [25]: > 100000 nM | TGI [25]: > 100 µM | GI50 [26]: > 100 µM | TGI [26]: > 100 µM | GI50 [27]: > 100 µM | TGI [27]: > 100 µM | GI50 [28]: > 100 µM | TGI [28]: > 100 µM | GI50 [29]: > 100 µM | TGI [29]: > 100 µM | GI50 [30]: > 100 µM | TGI [30]: > 100 µM | GI50 [31]: > 100000 nM | TGI [31]: > 100 µM | GI50 [32]: > 100 µM | TGI [32]: > 100 µM | GI50 [33]: > 100000 nM | TGI [33]: > 100 µM | GI50 [34]: > 100 µM | TGI [34]: > 100 µM | GI50 [35]: > 100 µM | TGI [35]: > 100 µM | GI50 [36]: > 100000 nM | TGI [36]: > 100 µM | GI50 [37]: > 100 µM | TGI [37]: > 100 µM | GI50 [38]: > 100 µM | TGI [38]: > 100 µM | GI50 [39]: 33.9 µM | TGI [39]: > 100 µM | GI50 [40]: > 100 µM | TGI [40]: > 100 µM | GI50 [41]: > 100000 nM | TGI [41]: > 100 µM | GI50 [42]: > 100000 nM | TGI [42]: > 100 µM | GI50 [43]: > 100 µM | TGI [43]: > 100 µM | GI50 [44]: > 100 µM | TGI [44]: > 100 µM | GI50 [45]: > 100 µM | TGI [45]: > 100 µM | GI50 [46]: > 100000 nM | TGI [46]: > 100 µM | GI50 [47]: > 100 µM | TGI [47]: > 100 µM | GI50 [48]: > 100000 nM | TGI [48]: > 100 µM | GI50 [49]: > 100000 nM | TGI [49]: > 100 µM | GI50 [50]: > 100000 nM | TGI [50]: > 100 µM | GI50 [51]: > 100 µM | TGI [51]: > 100 µM | GI50 [52]: > 100 µM | TGI [52]: > 100 µM | GI50 [53]: > 100000 nM | TGI [53]: > 100000 nM | GI50 [54]: > 100 µM | TGI [54]: > 100 µM | GI50 [55]: > 100000 nM | TGI [55]: > 100 µM | GI50 [56]: > 100 µM | TGI [56]: > 100 µM

O=C(COc1ccc(-c2nc3cc(Cl)c(Cl)cc3[nH]2)cc1)N=Nc1c(O)[nH]c2ccccc12
GI50 [1]: 2330 nM | TGI [1]: 8.5 µM | GI50 [2]: 3.62 µM | TGI [2]: 18.6 µM | GI50 [4]: 3.71 µM | TGI [4]: > 100 µM | GI50 [5]: 12.7 µM | TGI [5]: 59 µM | GI50 [6]: 6.91 µM | TGI [6]: > 100 µM | GI50 [7]: 749 nM | TGI [7]: > 100000 nM | GI50 [8]: 2290 nM | TGI [8]: > 100 µM | GI50 [9]: 1510 nM | TGI [9]: > 100 µM | GI50 [10]: 4.97 µM | TGI [10]: > 100 µM | GI50 [11]: 1350 nM | TGI [11]: 3.75 µM | GI50 [12]: 9.12 µM | TGI [12]: > 100 µM | GI50 [13]: > 100 µM | TGI [13]: > 100 µM | GI50 [14]: > 100 µM | TGI [14]: > 100 µM | TGI [15]: > 40.8 µM | GI50 [57]: 1590 nM | TGI [57]: 5.22 µM | GI50 [16]: 1610 nM | TGI [16]: 5.68 µM | GI50 [17]: 1140 nM | TGI [17]: > 100 µM | GI50 [18]: 3.13 µM | TGI [18]: > 53.3 µM | GI50 [19]: 675 nM | TGI [19]: > 100 µM | GI50 [21]: 1020 nM | TGI [21]: 2640 nM | GI50 [22]: 4.17 µM | TGI [22]: > 100 µM | GI50 [25]: 1090 nM | TGI [25]: 3.43 µM | GI50 [27]: 3.57 µM | TGI [27]: > 100 µM | GI50 [29]: 3.03 µM | TGI [29]: 15.1 µM | GI50 [31]: 2550 nM | TGI [31]: > 100 µM | GI50 [32]: > 100 µM | TGI [32]: > 100 µM | GI50 [33]: 2700 nM | TGI [33]: > 100 µM | GI50 [35]: > 100 µM | TGI [35]: > 100 µM | GI50 [36]: 1550 nM | TGI [36]: > 100 µM | GI50 [39]: 2.71 µM | TGI [39]: 9.77 µM | GI50 [41]: 2630 nM | TGI [41]: 9.01 µM | GI50 [42]: 2650 nM | TGI [42]: 24.2 µM | GI50 [43]: 3.84 µM | TGI [43]: 24.1 µM | GI50 [46]: 2280 nM | TGI [46]: 9.88 µM | GI50 [47]: 3.85 µM | TGI [47]: > 100 µM | GI50 [48]: 1780 nM | TGI [48]: 6.62 µM | GI50 [49]: 1610 nM | TGI [49]: 3.68 µM | GI50 [50]: 803 nM | TGI [50]: 31.7 µM | GI50 [52]: > 33.1 µM | TGI [52]: > 58.5 µM | GI50 [53]: 564 nM | TGI [53]: 2100 nM | GI50 [55]: 2830 nM | TGI [55]: > 100 µM | GI50 [56]: > 100 µM | TGI [56]: > 100 µM
